We go through 16 compounds from patent US20250230165A1, “HETEROCYCLIC COMPOUNDS FOR USE IN THE TREATMENT OF CANCER” (ARTIOS PHARMA LIMITED, priority 2021, published 2025).

The target in this assay is T1, Human Polθ polymerase domain (aa1820-2590) (Homo sapiens, UniProt O75417).
T1 construct: Human Polθ polymerase domain (aa1820-2590) was expressed in E. coli; made in house; host or cells: E. coli
T1 sequence (O75417 1820-2590): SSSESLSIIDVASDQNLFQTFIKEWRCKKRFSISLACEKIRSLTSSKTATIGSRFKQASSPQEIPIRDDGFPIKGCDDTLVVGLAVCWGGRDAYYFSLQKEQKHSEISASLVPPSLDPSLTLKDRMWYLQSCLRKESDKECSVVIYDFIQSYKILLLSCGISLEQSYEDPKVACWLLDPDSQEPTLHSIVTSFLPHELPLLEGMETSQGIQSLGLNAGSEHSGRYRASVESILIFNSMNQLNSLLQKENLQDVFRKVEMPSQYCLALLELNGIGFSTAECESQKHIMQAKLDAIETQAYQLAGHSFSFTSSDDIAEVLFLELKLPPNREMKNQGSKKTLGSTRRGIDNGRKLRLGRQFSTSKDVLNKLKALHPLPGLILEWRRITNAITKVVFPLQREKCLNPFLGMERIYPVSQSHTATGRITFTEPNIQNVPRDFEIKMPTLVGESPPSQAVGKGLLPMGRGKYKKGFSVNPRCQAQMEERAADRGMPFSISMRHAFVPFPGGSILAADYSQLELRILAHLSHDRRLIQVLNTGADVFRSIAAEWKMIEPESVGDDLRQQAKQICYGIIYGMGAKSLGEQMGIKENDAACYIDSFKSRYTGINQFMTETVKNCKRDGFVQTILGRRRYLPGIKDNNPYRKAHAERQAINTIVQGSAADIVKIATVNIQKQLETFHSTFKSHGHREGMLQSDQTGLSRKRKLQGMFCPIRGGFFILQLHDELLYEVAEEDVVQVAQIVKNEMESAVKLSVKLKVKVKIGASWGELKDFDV
Description: Polθ Polymerase Domain Kinact/KI Assay (PicoGreen). It is filed as biochemical. The conditions noted are these: 0.8 nM Polθ, 100 nM DNA substrate, kobs vs [I] fit for 2-step covalent inhibitor. The procedure, abridged:
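Enzyme 0.8 nM, annealed DNA substrate 100 nM, […]; 25 mM Tris pH 7.5, 5% glycerol, 0.01% Triton X-100, 0.1 mg/ml BSA, 1 mM DTT, 1% DMSO. Quench with EDTA at timepoints to 60 min; PicoGreen read. kobs from time courses → Kinact/KI.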
Compound `Cc1cc(C(F)(F)F)cc(N2C(=O)C[C@@H]3CN(Cc4ccc(NC(=O)/C=C/CN(C)C)cc4F)c4c(Cl)cccc4N(C)C(=O)[C@H]32)n1` [Example 246, (E)-N-(4-(((3aR,11aS)-6-chloro-10-methyl-1-(6-methyl-4-(trifluoromethyl)pyridin-2-yl)-2,11-dioxo-1,2,3,3a,4,10,11,11a-octahydro-5H-benzo[b]pyrrolo[2,3-f][1,4]diazocin-5-yl)methyl)-3-fluorophenyl)-4-(dimethylamino)but-2-enamide] came in with a Kinact/Kl of 420000 M⁻¹ s⁻¹.

In turn, `C=CC(=O)N1CC2(C1)CN(C(=O)CN1C[C@H]3CC(=O)N(c4cc(C(F)(F)F)cc(C)n4)[C@@H]3C(=O)N(C)c3cccc(F)c31)C[C@@H](C)N2` [Example 52, (3aR,11aS)-5-(2-((R)-2-acryloyl-6-methyl-2,5,8-triazaspiro[3.5]nonan-8-yl)-2-oxoethyl)-6-fluoro-10-methyl-1-(6-methyl-4-(trifluoromethyl)pyridin-2-yl)-1,3a,4,5,10,11a-hexahydro-2H-benzo[b]pyrrolo[2,3-f][1,4]diazocine-2,11(3H)-dione] returned a Kinact/Kl of 190000 M⁻¹ s⁻¹.

Compound `C#CC(=O)N1CC(F)(COCCN2C[C@H]3CC(=O)N(c4cc(C(F)(F)F)cc(C)n4)[C@@H]3C(=O)N(C)c3cccc(Cl)c32)C1` [Example 303, (3aR,11aS)-6-chloro-5-(2-((3-fluoro-1-propioloylazetidin-3-yl)methoxy)ethyl)-10-methyl-1-(6-methyl-4-(trifluoromethyl)pyridin-2-yl)-1,3a,4,5,10,11a-hexahydro-2H-benzo[b]pyrrolo[2,3-f][1,4]diazocine-2,11(3H)-dione] returned a Kinact/Kl of 1.8e+06 M⁻¹ s⁻¹.

As for `C=CC(=O)N1C[C@H]2CN(CCN3C[C@H]4CC(=O)N(c5cc(C(F)(F)F)cc(C)n5)[C@@H]4C(=O)N(C)c4cccc(F)c43)CCN2C(=O)[C@@H]1C` (single isomer, unassigned) [Example 61], the Kinact/Kl is 500000 M⁻¹ s⁻¹.

Compound `C=CC(=O)N1CCn2cc(CN3C[C@H]4CC(=O)N(c5cc(C(F)(F)F)cc(C)n5)[C@@H]4C(=O)N(C)c4cccc(F)c43)nc2C1` [Example 132, (3aR,11aS)-5-((7-acryloyl-5,6,7,8-tetrahydroimidazo[1,2-a]pyrazin-2-yl)methyl)-6-fluoro-10-methyl-1-(6-methyl-4-(trifluoromethyl)pyridin-2-yl)-1,3a,4,5,10,11a-hexahydro-2H-benzo[b]pyrrolo[2,3-f][1,4]diazocine-2,11(3H)-dione] registered a Kinact/Kl of 1.86e+06 M⁻¹ s⁻¹.

`Cc1cc(C(F)(F)F)cc(N2C(=O)C[C@@H]3CN(CCCOC4CN(C(=O)C5=CCCN(C)C5)C4)c4c(C)cccc4N(C)C(=O)[C@H]32)n1` [Example 196, (3aR,11aS)-6,10-dimethyl-5-(3-((1-(1-methyl-1,2,5,6-tetrahydropyridine-3-carbonyl)azeti-din-3-yl)oxy)prop-yl)-1-(6-methyl-4-(trifluoromethyl)-pyridin-2-yl)-1,3a,4,5,10,11a-hexahydro-2H-benzo[b]pyrrolo [2,3-f][1,4]diazo-cine-2,11(3H)-dione]: the Kinact/Kl stood at 2.06e+06 M⁻¹ s⁻¹.

For `C=CC(=O)N1Cc2cc(CN3C[C@H]4CC(=O)N(c5cc(C(F)(F)F)cc(C)n5)[C@@H]4C(=O)N(C)c4cccc(Cl)c43)cnc2C1CC#N` (single isomer, unassigned) [Example 292b], the Kinact/Kl came to 2.52e+06 M⁻¹ s⁻¹.

For `C=CC(=O)N1Cc2nc(CN3C[C@H]4CC(=O)N(c5cc(C(F)(F)F)cc(C)n5)[C@@H]4C(=O)N(C)c4cccc(C)c43)cn2C[C@H]1C(F)(F)F` (racemic) [Example 322a, (3aR,11aS)-5-(((S/R)-7-acryloyl-6-(trifluoromethyl)-5,6,7,8-tetrahydro-imidazo[1,2-a]pyr-azin-2-yl)methyl)-6,10-dimethyl-1-(6-methyl-4-(trifluoro-methyl)pyridin-2-yl)-1,3a,4,5,10,11a-hexahydro-2H-benzo[b]pyrrolo [2,3-f][1,4]diazo-cine-2,11(3H)-dione], the Kinact/Kl came to 1.56e+06 M⁻¹ s⁻¹.

`C=CC(=O)N1Cc2ccc(CN3C[C@H]4CC(=O)N(c5cc(C(F)(F)F)cc(C)n5)[C@@H]4C(=O)N(C)c4cccc(Cl)c43)nc2C1` [Example 276, (3aR,11aS)-5-((6-acryloyl-6,7-dihydro-5H-pyrrolo[3,4-b]pyridin-2-yl)methyl)-6-chloro-10-methyl-1-(6-methyl-4-(trifluoromethyl)pyridin-2-yl)-1,3a,4,5,10,11a-hexahydro-2H-benzo[b]pyrrolo[2,3-f][1,4]diazocine-2,11(3H)-dione] yielded a Kinact/Kl of 1.76e+06 M⁻¹ s⁻¹.

`C=CC(=O)N1CC2(CN(CCN3C[C@H]4CC(=O)N(c5cc(C(F)(F)F)cc(C)n5)[C@@H]4C(=O)N(C)c4cccc(F)c43)C[C@H]3COCCN32)C1` (racemic) [Example 24b, (3aR,11aS)-5-(2-((S/R)-1-acryloyltetrahydro-1′H-spiro[azetidine-3,6′-pyrazino[2,1-c][1,4]oxazin]-8′(7′H)-yl)ethyl)-6-fluoro-10-methyl-1-(6-methyl-4-(trifluoromethyl)pyridin-2-yl)-1,3a,4,5,10,11a-hexahydro-2H-benzo[b]pyrrolo[2,3-f][1,4]diazocine-2, 11(3H)-dione] returned a Kinact/Kl of 290000 M⁻¹ s⁻¹.

As for `C=CC(=O)N1CC(N2CCC(N3C[C@H]4CC(=O)N(c5cc(C(F)(F)F)cc(C)n5)[C@@H]4C(=O)N(C)c4cccc(F)c43)CC2)C1` [Example 216, (3aR,11aS)-5-(1-(1-acryloylazetidin-3-yl)piperidin-4-yl)-6-fluoro-10-methyl-1-(6-methyl-4-(trifluoromethyl)pyridin-2-yl)-1,3a,4,5,10,11a-hexahydro-2H-benzo[b]pyrrolo [2,3-f][1,4] diazocine-2,11(3H)-dione], the Kinact/Kl is 430000 M⁻¹ s⁻¹.

Compound `C=CC(=O)N1CCC[C@H]1c1nc(CN2C[C@H]3CC(=O)N(c4cc(C(F)(F)F)cc(C)n4)[C@@H]3C(=O)N(C)c3cccc(C)c32)no1` [Example 271, (3aR,11aS)-5-((5-((S)-1-acryloylpyrrolidin-2-yl)-1,2,4-oxadiazol-3-yl)methyl)-6,10-dimethyl-1-(6-methyl-4-(trifluoromethyl)pyridin-2-yl)-1,3a,4,5,10,11a-hexahydro-2H-benzo[b]pyrrolo[2,3-f][1,4]diazocine-2,11(3H)-dione] yielded a Kinact/Kl of 200000 M⁻¹ s⁻¹.

As to `C=CC(=O)N1CC(F)(COCCN2C[C@H]3CC(=O)N(c4cc(C(F)(F)F)cc(C)n4)[C@@H]3C(=O)N(C)c3cccc(Cl)c32)C1` [Example 285, (3aR,11aS)-5-(2-((1-acryloyl-3-fluoroazetidin-3-yl)methoxy)ethyl)-6-chloro-10-methyl-1-(6-methyl-4-(trifluoromethyl)pyridin-2-yl)-1,3a,4,5,10,11a-hexahydro-2H-benzo[b]pyrrolo[2,3-f][1,4]diazocine-2,11(3H)-dione], the Kinact/Kl turned out to be 1.98e+06 M⁻¹ s⁻¹.

For the compound `C=CC(=O)N1Cc2nc(CN3C[C@H]4CC(=O)N(c5cc(C(F)(F)F)cc(C)n5)[C@@H]4C(=O)N(C)c4cccc(C)c43)cn2C[C@@H]1C(F)(F)F` (racemic) [Example 322b, (3aR,11aS)-5-(((R/S)-7-acryloyl-6-(trifluoromethyl)-5,6,7,8-tetrahydro-imidazo[1,2-a]pyr-azin-2-yl)methyl)-6,10-dimethyl-1-(6-methyl-4-(trifluoro-methyl)pyridin-2-yl)-1,3a,4,5,10,11a-hexahydro-2H-benzo[b]pyrrolo[2,3-f][1,4]diazocine-2,11(3H)-dione], the Kinact/Kl amounted to 1.13e+06 M⁻¹ s⁻¹.

The compound `C=CC(=O)N1CC(N2CCN(CCN3C[C@H]4CC(=O)N(c5cc(C(F)(F)F)cc(C)n5)[C@@H]4C(=O)N(C)c4cccc(F)c43)CC2)C1` [Example 1, (3aR,11aS)-5-(2-(4-(1-Acryloylazetidin-3-yl)piperazin-1-yl)ethyl)-6-fluoro-10-methyl-1-(6-methyl-4-(trifluoromethyl)pyridin-2-yl)-1,3a,4,5,10,11a-hexahydro-2H-benzo[b]pyrrolo[2,3-f][1,4]diazocine-2,11(3H)-dione] registered a Kinact/Kl of 410000 M⁻¹ s⁻¹.

`C=CC(=O)N1Cc2ccc(CN3C[C@H]4CC(=O)N(c5cc(C(F)(F)F)cc(C)n5)[C@@H]4C(=O)N(C)c4cccc(C)c43)nc2[C@H]1CC#N` (racemic) [Example 318a, 2-((R/S)-6-acryloyl-2-(((3aR,11aS)-6,10-dimethyl-1-(6-meth-yl-4-(trifluorometh-yl)pyridin-2-yl)-2,11-dioxo-1,2,3,3a, 4,10,11,11a-octa-hydro-5H-benzo[b]pyrrolo[2,3-f][1,4]diazocin-5-yl)meth-yl)-6,7-dihydro-5H-pyrrolo[3,4-b]pyr-idin-7-yl)acetonitrile] displayed a Kinact/Kl of 1.9e+06 M⁻¹ s⁻¹.
